From ChEMBL document CHEMBL1201862, “PubChem BioAssay data set” (2004)
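A five-concentration, 48-hour dose response in 96-well plates underlies each endpoint, interpolated linearly between surrounding concentrations. At the GI50, growth is halved.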 Activity calls are given as the source filed them. Cut-off read from the data, not from the text of the source: active = GI50 up to about 1.1 µM and inactive = higher.

Experiments:
Test in all cases: growth of human tumour cells (NCI), 48 h
[1] = tested on: A498
[2] = tested on: COLO 205
[3] = tested on: Hs-578T
[4] = tested on: IGROV-1
[5] = tested on: MCF7
[6] = tested on: MDA-N
[7] = tested on: Malme-3M
[8] = tested on: NCI-H226
[9] = tested on: NCI-H460
[10] = tested on: OVCAR-5
[11] = tested on: RPMI-8226
[12] = tested on: RXF 393
[13] = tested on: SF-295
[14] = tested on: SK-MEL-2
[15] = tested on: SK-OV-3
[16] = tested on: SR
[17] = tested on: UACC-62
[18] = tested on: UO-31
[19] = tested on: XF498
[20] = tested on: BT-549

Compound	GI50 [1]	GI50 [2]	GI50 [3]	GI50 [4]	GI50 [5]	GI50 [6]	GI50 [7]	GI50 [8]	GI50 [9]	GI50 [10]	GI50 [11]	GI50 [12]	GI50 [13]	GI50 [14]	GI50 [15]	GI50 [16]	GI50 [17]	GI50 [18]	GI50 [19]	GI50 [20]
C=CCNc1nc2c(s1)C(=O)c1ccccc1C2=O	19.5 µM (inactive)	20.1 µM (inactive)	32.1 µM (inactive)	8.73 µM (inactive)	6.25 µM (inactive)	1.86 µM (inactive)	12.5 µM (inactive)	21.2 µM (inactive)	12 µM (inactive)	21.7 µM (inactive)	3.12 µM (inactive)	18.6 µM (inactive)	14.8 µM (inactive)	10.9 µM (inactive)	17.9 µM (inactive)	3.43 µM (inactive)	3.9 µM (inactive)	13.3 µM (inactive)	20.4 µM (inactive)	
CCc1ccccc1N1CCN(C(=O)c2cc(OC)c(OC)c(OC)c2)CC1	0.0303 µM (active)	0.0219 µM (active)	0.0144 µM (active)	0.0462 µM (active)	0.0178 µM (active)	< 0.01 µM (active)	0.0232 µM (active)	0.103 µM (active)	0.0307 µM (active)	4.14 µM (inactive)	0.149 µM (active)	0.0105 µM (active)	0.0134 µM (active)	0.0247 µM (active)	0.0375 µM (active)	0.0893 µM (active)	0.0156 µM (active)	0.0685 µM (active)	0.115 µM (active)	0.0361 µM (active)
